# Measurements from patent US20110045004A1, “METHOD FOR IN-VITRO DETECTING PATHOGENIC T HELPER CELLS AND PHARMACEUTICAL COMPOSITIONS FOR TREATING AUTOIMMUNE DISEASES” (DEUTCHES RHEUMA-FORSCHUNGSZENTRUM BERLIN, priority 2007, published 2011).
# Tests used:
# [1] = system: twist1 mRNA in 4-w-old Th1 cells; test: twist1 mRNA (RT PCR) in restimulated 4-w-old Th1 cells with inhibitors or single stimuli; assay type: cell-based, murine; conditions: for PMA/ionomycin mediated up-regulation of twist1 mRNA expression: 4-w-old Th1 cells restimulated 3 h with PMA/ionomycin and IL-2, serial dilutions of inhibitor (FIG. 2B); for induction of twist1 expression by stimulus alone: 4-w-old Th1 cells restimulated 3 h in the presence of IL-2 (FIG. 2C)
# Experimental: (§1) Lymphocytes were cultured in complete RPMI1640 (Invitrogen) supplemented with 10% heat-inactivated fetal calf serum, 100 units/ml penicillin, 0.1 mg/ml streptomycin and 10 μM β-mercaptoethanol. Naïve CD4+CD62L+ lymphocytes from 6-8 w old DO11.10 mice were isolated as described. Irradiated (30 Gy) BALB/c splenocytes were used as APCs at a ratio of 5:1. The cognate peptide ova323-339 (R. Volkmer-Engert, Humboldt University of Berlin, Germany) was added at 0.5 μM. Alternatively, plates were coated with 3 μg/ml anti-CD3 (145-2C11) in PBS, and CD4+ cells were plated at a density of 2×10^6 cells/ml in medium plus 1 μg/ml soluble anti-CD28 (37.51). For Th1 differentiation, cells were stimulated in the presence of 5 ng/ml recombinant murine IL-12 (R&D Systems) and 5 μg/ml anti-IL-4 antibody (11B11). For Th2 differentiation, cells were stimulated in the presence of murine IL-4 (100 ng/ml, culture supernatant of HEK293T cells transfected with an expression plasmid, encoding murine IL-4), 5 μg/ml anti-IL-12 antibody (C17.8.6) and anti-IFN-γ antibody (AN18.17.24). Dead cells were removed by Ficoll-Histopaque separation. Every 6 d viable Th cells were harvested and restimulated under the original conditions, except that 10 ng/ml murine IL-2 (R&D Systems) was added.
# Cells were re-stimulated with 10 ng/ml PMA, and 1 μg/ml ionomycin. Alternatively, cells were re-stimulated with plate-bound anti-CD3 (10 μg/ml), and soluble anti-CD28 ([…]). For re-stimulation of murine T cells, 10 ng/ml IL-2 was added. For intracellular staining of cytokines, T cells were stimulated for 2 h with PMA/ionomycin and additional 3 h with 5 μg/ml of brefeldin A to block the secretion of cytokines. Cells were fixed with 2% formaldehyde in PBS for 15 min at room temperature and permeabilized with 0.5% w/v saponin.
# (§2) Total RNA was prepared using NucleoSpin RNA II (Macherey-Nagel) or RNeasy kit (Qiagen). […] For the normalization of murine and human cDNA the transcripts for the housekeeping genes hypoxanthine guanine phosphoribosyl transferase (HPRT) and ubiquitin ligase H5 (UbCH5) were quantified, respectively. Data were evaluated using Lightcycler software. Relative expression was calculated as follows: Et^ΔCp target gene (reference-sample)/EhΔCp housekeeping gene (reference-sample), where Cp represents the crossing point and E represents the reaction efficiency, determined by serial dilution of DNA.
# (A) Comparison of the genomic sequence of the murine and the human proximal twist1 promoter (−150 to −100). […] The binding of NFAT1 (D) and the NF-κB subunit p65 (E) to the proximal promoter of twist1 was analyzed by chromatin immunoprecipitation (ChIP). […] The immunoprecipitated DNA was quantified by RT PCR using primers specific for the proximal promoter. […]
# [2] = system: twist1 mRNA in DO11.10 Th cells; test: twist1 mRNA induction by Th1-polarizing signals in DO11.10 Th cells; assay type: cell-based, murine; conditions: for induction of twist1 expression by polarizing signal: CD62Lhi DO11.10 Th cells stimulated 5 d, then 3 h PMA/ionomycin and IL-2, IFN-γ tested in the absence of IL-12 (FIG. 3A)
# Experimental: as §1, §2
# Twist1 mRNA of Th cells activated for 3 h with PMA/ionomycin and IL-2 was quantified by RT PCR (A-D). […] Twist1 transcripts were quantified on d 11. […]
# [3] = system: Rag-deficient mice, intestine; test: Transfer colitis model with Hop shRNA transduced Th1 cells; assay type: in vivo, murine; conditions: Th1 cells transduced with shRNA transferred into Rag-deficient mice (FIG. 12)
# Source text: To assess the functional role of hop we used a T cell dependent model of inflammatory bowel disease. In this model, T cells are transferred into Rag-deficient or SCID mice lacking T and B cells. In this model, the transferred T cells react against the intestinal bacterial flora leading to inflammation in the intestine. For the analysis of the function of Hop we inhibited the expression of Hop by shRNA-mediated knock-down. Polyclonally activated Th1 cells transduced with a retroviral vector encoding a Hop-specific shRNA or a control shRNA were transferred into Rag-deficient mice. […] The transfer of control Th1 cells lead to severe inflammation of the intestine with strong infiltration of inflammatory cells and a complete loss of the intestinal architecture.
molecule,measurement,setting,value
"S=C(S)N1CCCC1 [PDTC, pyrrolidine dithiocarbamate]",PMA/ionomycin mediated up-regulation of twist1 mRNA expression,[1],blocked the PMA/ionomycin mediated up-regulation of twist1 mRNA expression in a dose-dependent fashion
O=C(Nc1ccc(-n2nc(C(F)(F)F)cc2C(F)(F)F)cc1)c1ccc(Cl)cc1 [BTP1],PMA/ionomycin mediated up-regulation of twist1 mRNA expression,[1],blocked the PMA/ionomycin mediated up-regulation of twist1 mRNA expression in a dose-dependent fashion
CCCCCCCCCCCCCC(=O)O[C@@H]1[C@@H](C)[C@@]2(O)[C@@H](C=C(CO)C[C@]3(O)C(=O)C(C)=C[C@@H]23)[C@@H]2C(C)(C)[C@]12OC(C)=O [PMA],induction of twist1 expression by stimulus alone,[1],did not induce twist1 expression
"IFN-γ: cytokine added in the absence of IL-12, 10 ng/ml",induction of twist1 expression by polarizing signal,[2],did not induce twist1 expression
TNF-α,induction of twist1 expression by stimulus alone,[1],did not induce twist1 expression
"Hop-specific shRNA: retroviral vector encoded shRNA against Hop, target sequence SEQ ID NO. 40, whole shRNA SEQ ID NO. 41 (TGCAGATCTGTTACGGACTATTCAAGAGATAGTCCGTAACAGATCTGCTTTTTTC)","clinical signs of inflammation, histological analysis of the intestine",[3],strongly reduced clinical signs of inflammation
"IL-12: recombinant murine IL-12, Th1-polarizing signal (protein, UniProt P43431 23-215; P43432 23-335, looked up) Interleukin-12 subunit alpha: RVIPVSGPARCLSQSRNLLKTTDDMVKTAREKLKHYSCTAEDIDHEDITRDQTSTLKTCLPLELHKNESCLATRETSSTTRGSCLPPQKTSLMMTLCLGSIYEDLKMYQTEFQAINAALQNHNHQQIILDKGMLVAIDELMQSLNHNGETLRQKPPVGEADPYRVKMKLCILLHAFSTRVVTINRVMGYLSSA Interleukin-12 subunit beta: MWELEKDVYVVEVDWTPDAPGETVNLTCDTPEEDDITWTSDQRHGVIGSGKTLTITVKEFLDAGQYTCHKGGETLSHSHLLLHKKENGIWSTEILKNFKNKTFLKCEAPNYSGRFTCSWLVQRNMDLKFNIKSSSSSPDSRAVTCGMASLSAEKVTLDQRDYEKYSVSCQEDVTCPTAEETLPIELALEARQQNKYENYSTSFFIRDIIKPDPPKNLQMKPLKNSQVEVSWEYPDSWSTPHSYFSLKFFVRIQRKKEKMKETEEGCNQKGAFLVEKTSTEVQCKGGNVCVQAQDRYYNSSCSKWACVPCRVRS",induction of twist1 expression by polarizing signal,[2],induced twist1 expression in a dose-dependent fashion
same,increase of TCR activation-dependent twist1 expression over one week stimulated Th1 cells,"[2]; Th1 cells polarized one week with IL-12, reactivated another week in the presence of IL-12 (FIG. 3D)",16 fold
